Data: US20240325370A1, “THERAPEUTIC REGIMENS OF A DEGRADER OF BRD9” (FOGHORN THERAPEUTICS INC., priority 2021, published 2024)
Entries after “also recorded” stand apart in the source; their conditions may differ.

Tests used:
[1] = test system: synovial sarcoma cell lines (SYO1, Yamato, HS-SY-II, and ASKA); assay: Growth of synovial sarcoma cell lines (IncuCyte confluency, crystal violet, colonies); type: cell-based, human; settings: 1 μM or indicated concentrations
Experimental: (§1) Cells were treated with DMSO or the BRD9 degrader, Compound 1, at indicated concentrations, and proliferation was monitored from day 7 to day 14 by measuring confluency over time using an IncuCyte live cell analysis system (FIG. 4). Growth medium and compounds were refreshed every 3-4 days.
(§2) Cells were seeded into 12-well plates and treated with DMSO, 1 μM BRD9 inhibitor, Compound 2 (also known as BI-7273, see Martin et al, J Med Chem. 59 (10): 4462-4475 (2016); see structure of compound 2 below), or 1 μM BRD9 degrader, Compound 1.
(§3) The number of cells was optimized for each cell line. Growth medium and compounds were refreshed every 3-5 days. SYO1, Yamato, A549, 293T and HS-SY-II cells were fixed and stained at day 11. ASKA cells were fixed and stained at day 23. Staining was done by incubation with crystal violet solution (0.5 g Crystal Violet, 27 ml 37% Formaldehyde, 100 mL 10×PBS, 10 mL Methanol, 863 dH20 to 1 L) for 30 min followed by 3× washes with water and drying the plates for at least 24 h at room temperature. Subsequently plates were scanned on an Odyssey CLx Imaging system (FIG. 5).
(§4) Cells were seeded into 96-well ultra-low cluster plate (Costar, #7007) in 200 μL complete media and treated at day 2 with DMSO, Staurosporin, or BRD9 degrader, Compound 1, at indicated doses (FIG. 2C). Media and compounds were changed every 5 d and cell colonies were imaged at day 14.

[2] = test system: non-synovial control cancer cell lines (293T, A549, G401); assay: Growth of non-synovial control cancer cell lines; type: cell-based
Experimental: as §1, §2, §3, §4

[3] = test system: synovial sarcoma cell lines (SYO1, HS-SY-II, and ASKA); assay: Crystal violet growth assay, synovial sarcoma cell lines, day 14; type: cell-based, human; settings: treated daily
Experimental: (§5) Procedure: Cells were seeded into 6-well or 12-well plates and were treated daily with a BRD9 degrader (Compound 1), a bromo-domain BRD9 binder (Compound 2), E3 ligase binder (lenalidomide), DMSO, or staurosporin (positive control for cell killing), at indicated concentrations. The number of cells was optimized for each cell line. Growth media was refreshed every 5 days. By day 14, medium was removed, cells were washed with PBS, and stained using 500 μL of 0.005% (w/v) crystal violet solution in 25% (v/v) methanol for at least 1 hour at room temperature. Subsequently plates were scanned on an Odyssey CLx Imaging system.

[4] = test system: non-synovial control cancer cell lines (RD, HCT116, and Calu6); assay: Crystal violet growth assay, non-synovial control cancer cell lines, day 14; type: cell-based; settings: treated daily
Experimental: as §5

[5] = test system: ASKA synovial sarcoma xenografts; assay: ASKA synovial sarcoma xenograft efficacy; type: in vivo; settings: for Tumor Growth (%) on Day 21 / Tumor Size (mm^3) on Day 21: Mean ± SEM; for T/C (%) / TGI (%): Day 21
Experimental: A study was conducted to examine anti-tumor efficacy of compound S-D1 with BIW IV dosing of the racemate, compound D1, for 3 weeks utilizing a second xenograft model of human synovial sarcoma, ASKA. Vehicle (0.5% HPMC, 0.1% Tween 80 in water, pH 1.3 to 1.5), administered orally, was used as the general comparator for all test article responses (i.e., tumor growth and body weight changes). Pazopanib and ifosfamide, two agents currently used in clinic to treat synovial sarcoma patients were compared to compound D1 treatment alone. Pazopanib was administered orally at 40 mg/kg QD and ifosfamide was given IV at 80 mg/kg QD for the first 3 days (Days 0, 1, and 2) in the 3-week treatment period, mimicking the equivalent treatment regimens for both drugs in human patients.

[6] = test system: SYO1 cells; assay: Cell cycle analysis (Click-iT Plus EdU Flow Cytometry Assay); type: cell-based, human; settings: 200 nM or 1 μM for 8 or 13 days; compared to DMSO and lenalidomide
Experimental: (§6) Procedure: SYO1 cells were treated for 8 or 13 days with DMSO, a BRD9 degrader (Compound 1) at 200 nM or 1 μM, or an E3 ligase binder (lenalidomide) at 200 nM. Compounds were refreshed every 5 days. Cell cycle analysis was performed using the Click-iTT Plus EdU Flow Cytometry Assay (Invitrogen). The apoptosis assay was performed using the Annexin V-FITC Apoptosis Detection Kit (Sigma A9210). Assays were performed according to the manufacturer's protocol.

[7] = test system: SYO1 cells; assay: Apoptosis assay (Annexin V-FITC Apoptosis Detection Kit); type: cell-based, human; settings: 8 days; compared to DMSO controls
Experimental: as §6

[8] = 40 mg/kg QD oral 3 weeks, ASKA xenograft
[9] = 80 mg/kg QD IV Day 0 to Day 2, ASKA xenograft

Which results are given for `COc1cc(-c2cn(C)c(=O)c3cnccc23)cc(OC)c1CN(C)C` [Compound 2]?
inhibition of the growth of the cells [1]: inhibition of the growth of the cells; inhibition of the growth of the cells [2]: does not result in inhibition of the growth; inhibition of the growth of the cells [3]: inhibition of the growth of the cells; inhibition of the growth of the cells [4]: did not result in inhibition of the growth

Which results are given for `Cc1ccc(Nc2nccc(N(C)c3ccc4c(C)n(C)nc4c3)n2)cc1S(N)(=O)=O` [Pazopanib, reference compound]?
Tumor Growth (%) on Day 21 [5, 8]: 480 ± 33%; Tumor Size (mm^3) on Day 21 [5, 8]: 537 ± 56 mm^3; T/C (%) ([5]; 40 mg/kg QD oral 3 weeks): 39.4%; TGI (%) ([5]; 40 mg/kg QD oral 3 weeks): 60.6%

Which results are given for `COc1cc(-c2cn(C)c(=O)c3cnccc23)cc(OC)c1CN(C)CC(=O)NCCOCCOCCNc1cccc2c1C(=O)N(C1CCC(=O)NC1=O)C2=O` (centres unmarked) [Compound 1]?
numbers of cells in the S-phase of the cell cycle [6]: reduced numbers of cells in the S-phase; inhibition of the growth of the cells [1]: inhibition of the growth of the cells; inhibition of the growth of the cells [2]: does not result in inhibition of the growth; numbers of early- and late-apoptotic cells [7]: increased numbers of early- and late-apoptotic cells; inhibition of the growth of the cells [3]: inhibition of the growth of the cells; also recorded: most significant growth inhibition; inhibition of the growth of the cells [4]: did not result in inhibition of the growth

Which “Tumor Growth (%) on Day 21” value [5, 9] does the source give for `O=P1(NCCCl)OCCCN1CCCl` (centres unmarked) [Ifosfamide, reference compound] here?
Its value is 820 ± 56%.

What about the “Tumor Size (mm^3) on Day 21” value [5, 9] of the same molecule?
The value was 1164 ± 126 mm^3.

What about the “T/C (%)” value ([5]; 80 mg/kg QD IV Day 0 to Day 2) of the same molecule?
Its value is 67.2%.

And the “TGI (%)” value ([5]; 80 mg/kg QD IV Day 0 to Day 2)?
The value was 32.8%.

What about the “tolerability (body weight)” value ([5]; ASKA xenograft, 3-week treatment period) of the same molecule?
Its value is “transient body weight loss occurred but recovered within a few days”.

And the “tumor growth inhibition achieved” value ([5]; pazopanib 40 mg/kg QD oral, ifosfamide 80 mg/kg QD IV Days 0, 1, 2, ASKA xenograft)?
Its value is “partial TGI”.
